Data taken from patent publication US12383545B1, “Treatment of migraine” (priority 2018, dated 2025).

What was measured:
[1] = test system: participants with episodic migraine; experiment: Study B: AIM-D PDA and PI domain scores over 52 weeks; assay type: in vivo, human; details: atogepant 60 mg, mITT Population
From the text: The Activity in Migraine Diary (AIM-D) evaluates the impact of migraine on the performance of daily activities and physical impairment using an electronic daily diary. In particular, the AIM-D is comprised of two domains that evaluate Performance of Daily Activities (PDA) and Physical Impairment (PI). Assessed items for the AIM-D PDA domain include household chores, errands, leisure activities at home, social or leisure activities outside the home, strenuous physical activities, concentration, and thinking clearly. Assessed items for the AIM-D PI Domain include walking, moving one's body, bending forward, and moving one's head. Response options for each item range from “not difficult at all” to “I could not do it at all” on a 6-point rating scale. The AIM-D domain scores are scaled from 0-100, with higher scores indicating greater impact of migraine, and reductions from baseline in scores indicate improvement. See Cala et al., The Activity Impairment in Migraine-Diary (AIM-D): A Novel Migraine-Specific Patient-Reported Outcome Measure to Assess Functioning Based on Activity Impairment in Episodic and Chronic Migraine Patients, MTIS2018-005 (Sep. 5, 2018).
The negative change scores with confidence intervals that exclude 0 indicate a significant reduction in impairment due to migraine in PDA and PI.
Change scores with confidence intervals excluding zero were present at each time point assessed, indicating significant reduction in impairment due to migraine during the 52-week trial.

[2] = test system: participants with episodic migraine; experiment: Study A: Headache Impact Test (HIT-6); assay type: in vivo, human; details: for HIT-6 change from baseline to week 12, MMRM LS mean change (SE) / HIT-6 change from baseline to week 12, mean (SD) / HIT-6 score, Week 12, mean (SD): mITT
Experimental: In embodiments, the present disclosure provides a method for preventing migraine (such as a method for preventing migraine in patients having fewer than fifteen migraine days per month) wherein atogepant is administered in an amount of 10 mg QD, 30 mg QD, or 60 mg QD, wherein administration of atogepant results in a reduction in a 6-item Headache Impact Test (HIT-6) disability score relative to baseline. The Headache Impact Test (HIT-6) is a well-known tool for assessing migraine intensity, and uses six questions to measure the adverse impact of headache on, for example, social functioning, role functioning, vitality, cognitive functioning, and psychological distress. Responses are based on frequency using a 5-point verbal response scale ranging from “never” to “always”. The HIT-6 total score is the sum of the responses, and ranges from 36 to 78. See Yang et al., Validation of the Headache Impact Test (HIT-6™) Across Episodic and Chronic Migraine, Cephalalgia 2011 February; 31 (3): 357-367. In embodiments, treatment with atogepant results in a greater than five (≥5) point decrease in HIT-6 disability score.
The Headache Impact Test (HIT-6, completed monthly) represented an additional exploratory measure. The HIT-6 test is a well-known tool for assessing migraine intensity that uses six questions to capture the impact of headache and its treatment on an individual's functional health and well-being. HIT-6 was completed monthly and was evaluated as the change from baseline in HIT-6 total score at weeks 4, 8, and 12.

## C[C@@H]1[C@H](c2c(F)ccc(F)c2F)C[C@H](NC(=O)c2cnc3c(c2)C[C@@]2(C3)C(=O)Nc3ncccc32)C(=O)N1CC(F)(F)F [atogepant]
[1]; Weeks 1-4, MMRM
  Change from Baseline in AIM-D Monthly PDA Domain Score, LS Mean Δ from baseline: −7.61
  Change from Baseline in AIM-D Monthly PI Domain Score, LS Mean Δ from baseline: −5.56
[1]; Weeks 5-8
  Change from Baseline in AIM-D Monthly PDA Domain Score, LS Mean Δ from baseline: −8.16
  Change from Baseline in AIM-D Monthly PI Domain Score, LS Mean Δ from baseline: −5.82
[1]; Weeks 9-12
  Change from Baseline in AIM-D Monthly PDA Domain Score, LS Mean Δ from baseline: −8.53
  Change from Baseline in AIM-D Monthly PI Domain Score, LS Mean Δ from baseline: −6.13
[1]; Weeks 13-16
  Change from Baseline in AIM-D Monthly PDA Domain Score, LS Mean Δ from baseline: −8.66
  Change from Baseline in AIM-D Monthly PI Domain Score, LS Mean Δ from baseline: −6.22
[1]; Weeks 17-20
  Change from Baseline in AIM-D Monthly PDA Domain Score, LS Mean Δ from baseline: −9.02
  Change from Baseline in AIM-D Monthly PI Domain Score, LS Mean Δ from baseline: −6.38
[1]; Weeks 21-24
  Change from Baseline in AIM-D Monthly PDA Domain Score, LS Mean Δ from baseline: −9.11
  Change from Baseline in AIM-D Monthly PI Domain Score, LS Mean Δ from baseline: −6.43
[1]; Weeks 25-28
  Change from Baseline in AIM-D Monthly PDA Domain Score, LS Mean Δ from baseline: −9.16
  Change from Baseline in AIM-D Monthly PI Domain Score, LS Mean Δ from baseline: −6.40
[1]; Weeks 29-32
  Change from Baseline in AIM-D Monthly PDA Domain Score, LS Mean Δ from baseline: −9.22
  Change from Baseline in AIM-D Monthly PI Domain Score, LS Mean Δ from baseline: −6.51
[1]; Weeks 33-36
  Change from Baseline in AIM-D Monthly PDA Domain Score, LS Mean Δ from baseline: −9.61
  Change from Baseline in AIM-D Monthly PI Domain Score, LS Mean Δ from baseline: −6.94
[1]; Weeks 37-40
  Change from Baseline in AIM-D Monthly PDA Domain Score, LS Mean Δ from baseline: −9.61
  Change from Baseline in AIM-D Monthly PI Domain Score, LS Mean Δ from baseline: −6.93
[1]; Weeks 41-44
  Change from Baseline in AIM-D Monthly PDA Domain Score, LS Mean Δ from baseline: −9.77
  Change from Baseline in AIM-D Monthly PI Domain Score, LS Mean Δ from baseline: −7.01
[1]; Weeks 45-48
  Change from Baseline in AIM-D Monthly PDA Domain Score, LS Mean Δ from baseline: −9.79
  Change from Baseline in AIM-D Monthly PI Domain Score, LS Mean Δ from baseline: −7.02
[1]; Weeks 49-52, MMRM
  Change from Baseline in AIM-D Monthly PDA Domain Score, LS Mean Δ from baseline: −10.17
  Change from Baseline in AIM-D Monthly PI Domain Score, LS Mean Δ from baseline: −7.20
[2]; 10 mg QD
  HIT-6 change to week 12, LSMD vs placebo (95% CI): −3.2
  HIT-6 change from baseline to week 12, MMRM LS mean change (SE): −8.4
  HIT-6 change from baseline to week 12, mean (SD): −8.3
  HIT-6 score, Week 12, mean (SD): 55.8
[2]; 10 mg QD, Week 4
  HIT-6 responders (≥5 point reduction), n/N (%): (48.6) %
  HIT-6 responders, odds ratio vs. placebo (95% CI): 1.53
[2]; 10 mg QD, Week 8
  HIT-6 responders (≥5 point reduction), n/N (%): (60.4) %
  HIT-6 responders, odds ratio vs. placebo (95% CI): 1.79
[2]; 10 mg QD, Week 12
  HIT-6 responders (≥5 point reduction), n/N (%): (64.5) %
  HIT-6 responders, odds ratio vs. placebo (95% CI): 1.74
[2]; 30 mg QD
  HIT-6 change to week 12, LSMD vs placebo (95% CI): −2.9
  HIT-6 change from baseline to week 12, MMRM LS mean change (SE): −8.1
  HIT-6 change from baseline to week 12, mean (SD): −8.1
  HIT-6 score, Week 12, mean (SD): 56.1
[2]; 30 mg QD, Week 4
  HIT-6 responders (≥5 point reduction), n/N (%): (46.8) %
  HIT-6 responders, odds ratio vs. placebo (95% CI): 1.43
[2]; 30 mg QD, Week 8
  HIT-6 responders (≥5 point reduction), n/N (%): (62.2) %
  HIT-6 responders, odds ratio vs. placebo (95% CI): 1.95
[2]; 30 mg QD, Week 12
  HIT-6 responders (≥5 point reduction), n/N (%): (62.7) %
  HIT-6 responders, odds ratio vs. placebo (95% CI): 1.54
[2]; 60 mg QD
  HIT-6 change to week 12, LSMD vs placebo (95% CI): −4.0
  HIT-6 change from baseline to week 12, MMRM LS mean change (SE): −9.2
  HIT-6 change from baseline to week 12, mean (SD): −9.9
  HIT-6 score, Week 12, mean (SD): 54.5
[2]; 60 mg QD, Week 4
  HIT-6 responders (≥5 point reduction), n/N (%): (56.2) %
  HIT-6 responders, odds ratio vs. placebo (95% CI): 2.18
[2]; 60 mg QD, Week 8
  HIT-6 responders (≥5 point reduction), n/N (%): (64.7) %
  HIT-6 responders, odds ratio vs. placebo (95% CI): 2.25
[2]; 60 mg QD, Week 12
  HIT-6 responders (≥5 point reduction), n/N (%): (65.2) %
  HIT-6 responders, odds ratio vs. placebo (95% CI): 1.77
